The source of these data is paper PMC8341922, “Glycosylated cyclophellitol-derived activity-based probes and inhibitors for cellulases” (RSC Chemical Biology, 2020).

Series [1] addresses T1, XynC (Aspergillus niger, UniProt A2QFV7).
T1 construct: gene xlnC; native, in xylan-grown A. niger secretome; about 35 kDa band
The series can be described thus: biotin-avidin pulldown, label-free LC-MS/MS quantification. Format: binding. The following applies: covalent; labelled compound; native secretome, 37 °C, 2 h.

The target of series [2] is T2, CbhA (Aspergillus niger, UniProt Q9UVS9).
T2 construct: native, in xylan-grown A. niger secretome; about 60 kDa band
T2 sequence (Q9UVS9 18-452): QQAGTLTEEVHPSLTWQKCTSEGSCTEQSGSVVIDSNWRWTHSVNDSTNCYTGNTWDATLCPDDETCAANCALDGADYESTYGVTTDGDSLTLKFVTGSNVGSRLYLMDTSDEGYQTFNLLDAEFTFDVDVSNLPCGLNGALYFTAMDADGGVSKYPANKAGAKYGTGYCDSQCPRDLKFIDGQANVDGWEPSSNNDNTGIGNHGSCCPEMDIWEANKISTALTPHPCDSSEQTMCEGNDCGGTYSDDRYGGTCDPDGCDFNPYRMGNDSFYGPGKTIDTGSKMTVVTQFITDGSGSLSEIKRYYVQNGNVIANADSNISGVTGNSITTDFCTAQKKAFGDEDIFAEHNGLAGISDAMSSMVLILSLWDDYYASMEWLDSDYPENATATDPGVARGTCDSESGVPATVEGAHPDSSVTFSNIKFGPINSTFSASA
Described as above. Format: binding. The following applies: covalent; labelled compound; native secretome, 37 °C, 2 h.

For series [3], the target named is T3, CbhB (Aspergillus niger, UniProt Q9UVS8).
T3 construct: native, in xylan-grown A. niger secretome; about 80 kDa band
T3 sequence (Q9UVS8 22-536): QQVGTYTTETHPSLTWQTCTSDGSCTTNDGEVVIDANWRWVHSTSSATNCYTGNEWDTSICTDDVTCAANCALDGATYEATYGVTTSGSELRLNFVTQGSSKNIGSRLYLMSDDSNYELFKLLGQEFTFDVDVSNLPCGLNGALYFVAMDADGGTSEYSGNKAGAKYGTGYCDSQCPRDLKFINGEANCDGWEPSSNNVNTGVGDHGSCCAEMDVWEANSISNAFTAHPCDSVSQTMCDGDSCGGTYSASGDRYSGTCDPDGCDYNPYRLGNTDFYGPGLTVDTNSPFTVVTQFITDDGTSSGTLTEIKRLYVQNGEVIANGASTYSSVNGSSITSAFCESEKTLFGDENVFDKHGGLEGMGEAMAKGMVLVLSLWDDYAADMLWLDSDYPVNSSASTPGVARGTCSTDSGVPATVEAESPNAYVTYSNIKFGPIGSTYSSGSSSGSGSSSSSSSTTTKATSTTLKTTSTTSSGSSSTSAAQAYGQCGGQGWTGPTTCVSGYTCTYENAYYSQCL
Described as above. As to conditions: covalent; labelled compound; native secretome, 37 °C, 2 h. Format: binding.

Series [4] addresses T4, HiCel7B (Mycothermus thermophilus, UniProt P56680).
T4 construct: gene CEL7B; purified enzyme, gift from Novozymes; deglycosylated for crystals
T4 sequence (P56680 1-402): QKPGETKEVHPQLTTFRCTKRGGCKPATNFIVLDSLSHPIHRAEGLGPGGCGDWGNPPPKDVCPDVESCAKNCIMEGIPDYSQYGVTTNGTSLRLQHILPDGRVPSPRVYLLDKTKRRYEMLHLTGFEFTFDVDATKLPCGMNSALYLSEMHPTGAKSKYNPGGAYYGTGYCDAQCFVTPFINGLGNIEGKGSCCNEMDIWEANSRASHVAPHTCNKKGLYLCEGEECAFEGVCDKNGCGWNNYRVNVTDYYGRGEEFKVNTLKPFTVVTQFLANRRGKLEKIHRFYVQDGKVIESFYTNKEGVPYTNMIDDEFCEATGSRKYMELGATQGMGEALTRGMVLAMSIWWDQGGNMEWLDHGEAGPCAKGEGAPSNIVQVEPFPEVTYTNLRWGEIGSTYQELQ
As to the kind of experiment: continuous fluorescence inhibition kinetics with 4MU-GG, kapp vs [inhibitor]. It is filed as biochemical. As to conditions: covalent, 50 mM sodium phosphate pH 7, 25 °C, 50 μM 4MU-GG, corrected for substrate KM, read-out: HiCel7B / K I. The source says:
continuous fluorescence inhibition kinetics with 4MU-GG, kapp vs [inhibitor] on HiCel7B

Series [5] has as its target T4, HiCel7B. As to the kind of experiment: continuous fluorescence inhibition kinetics with 4MU-GG, kapp vs [inhibitor]; also intact MS and crystal structure. Format: biochemical. The following applies: covalent; 50 mM sodium phosphate pH 7, 25 °C; 50 μM 4MU-GG; corrected for substrate KM; nucleophile E197; read-out: HiCel7B / K I. The source says: continuous fluorescence inhibition kinetics with 4MU-GG, kapp vs [inhibitor]; also intact MS and crystal structure on HiCel7B

Substrate in series [6]: Cc1cc(=O)oc2cc(O[C@@H]3O[C@H](CO)[C@@H](O[C@@H]4O[C@H](CO)[C@@H](O)[C@H](O)[C@H]4O)[C@H](O)[C@H]3O)ccc12
As to the kind of experiment: fluorescence, 4-methylumbelliferone release. It is filed as biochemical, Mycothermus thermophilus. The following applies: 50 mM sodium phosphate pH 7, 25 °C, corrected for inner filter effect. The source says: fluorescence, 4-methylumbelliferone release on HiCel7B | The KM value for the interaction of HiCel7B with 4MU-GG under the assay conditions

Regarding `O=C(CCCC[C@@H]1SC[C@@H]2NC(=O)N[C@@H]21)NCCOCCOCCOCC(=O)N[C@H]1[C@H](O)[C@@H](O)[C@H](O[C@H]2[C@H](O)[C@@H](O)[C@@H]3O[C@@H]3[C@@H]2CO)O[C@@H]1CO` [compound 15, probe 15], the “biotin-avidin pulldown, label-free LC-MS/MS quantification” value was “relative to the negative control were CbhA, CbhB, and XynC” in series [1]; “detected at elevated levels in the probe 15-treated samples relative to the negative control were CbhA” in series [2]; “detected at elevated levels in the probe 15-treated samples relative to the negative control were CbhA, CbhB” in series [3].

For `OC[C@@H]1C(O[C@@H]2O[C@H](CO)[C@@H](O[C@@H]3O[C@H](CO)[C@@H](O)[C@H](O)[C@H]3O)[C@H](O)[C@H]2O)C(O)C(O)[C@@H]2O[C@H]12` (stereo partly shown) [compound 5, inhibitor 5], the KI (inactivation) in series [4] (compound also hydrolysed internally by the enzyme) amounted to 1.9 ± 0.3 µM.

Regarding `[N-]=[N+]=NCCOCCOCCOCC(=O)N[C@H]1[C@H](O)[C@@H](O)[C@H](O[C@H]2[C@H](O)[C@@H](O)[C@@H]3O[C@@H]3[C@@H]2CO)O[C@@H]1CO` [compound 13, probe 13], in series [4], the KI (inactivation) stood at 3.9 ± 0.3 µM.

Turning to `OC[C@@H]1C(O[C@@H]2O[C@H](CO)[C@@H](O)[C@H](O)[C@H]2O)C(O)C(O)[C@@H]2O[C@H]12` (stereo partly shown) [compound 1, Cellobiose configured cyclophellitol], the KI (inactivation) in series [5] came out at 31 ± 4 µM.

B1: HiCel7B (Mycothermus thermophilus) (protein)
chain: T4 sequence (P56680 1-402)
notes: purified enzyme, gift from Novozymes; deglycosylated for crystals
In general, Km refers to the concentration of substrate that gives half-maximal velocity. For B1, the Km in series [6] turned out to be 76 µM.
